Measured values from patent US20190183950A1, “COMMENSAL FUNGI AND COMPONENTS THEREOF FOR USE IN MODULATING IMMUNE RESPONSES” (priority 2017, published 2019).

Columns and labels:
[1] = system: DSS induced intestinal injury; assay: DSS induced intestinal injury (survival, colon length, permeability, histology); format: in vivo, mouse; details: for susceptibility to DSS (mortality): antibiotic treated mice, intrarectal administration every other day from one day prior to DSS
influenza A virus = format: in vivo, mouse
NF-κB = assay: RAW-Blue stimulation and quantification of NF-κB activity; format: cell-based, murine; details: 500 μg/mL
Description: RAW-Blue cells (InvivoGen) cells are derived from the murine RAW 264.7 macrophages with chromosomal integration of a secreted embryonic alkaline phosphatase reporter construct induced by NF-κB. 5×10^4 RAW-Blue cells were seeded 24 hours prior to addition of the indicated blocking antibody. One hour thereafter, mannan (Sigma) was added at a final concentration of 500 μg/mL. Supernatants were collected after 24 hours to quantify NF-κB activity by colorimetric assay using QUANTI-Blue reagent (InvivoGen).

[2] = system: Th17 CD4+ T cells and circulating neutrophils; assay: Systemic immune cell analysis (tetramer staining, cytokine production, IL-17RC, reactive oxygen) in colonized mice; details: fluconazole treated colonized mice
Description: Fluorophore- or biotin-conjugated antibodies used mouse cell analysis are as follows: anti-CD4 (GK1.5, eBioscience), anti-CD8a (53-6.7, eBioscience), anti-CD11b (M1/70, Biolegend), anti-CD11c (N418, Biolegend), anti-F4/80 (BM8, eBioscience), anti-B220 (RA3-6B2, Biolegend), anti-CD44 (IM7, Biolegend), anti-CD45 (30F11, invitrogen), anti-Ly6G (1A8, BD bioscience), anti-Ly6C (HK1.4, Biolegend), anti-Gr1 (RB6-8C5, eBioscience), anti-IL-17RC (polyclonal IgG, R&D Systems), anti-FOXP3 (FJK-16S, eBioscience), anti-RORγt (Q31-378, BD bioscience), anti-T-bet (4B10, Biolegend), anti-IFN-γ (XMG1.2, eBioscience), anti-IL17A (TC 11-18H10.1, Biolegend), anti-IL17F (9D3.1C8, Biolegend). Fluorophore-conjugated antibodies were used for human cell analysis are as follows: anti-CD4 (OKT4, eBioscience), anti-CD15 (H198, invitrogen), anti-CD16 (3G8, Biolegend), anti-IL-17A (eBio64DEC17, eBioscience), anti-IL17F (O33-782, BD Bioscience), anti-IL17RC (309822, R&D Systems) with staining in the presence of Human Fc block (BD Bioscience). […] Single cell suspensions from spleen and peripheral lymph nodes were stained with APC conjugated I-Ab:2W1S55-68 tetramer at room temperature for 60 minutes, and enriched using anti-APC antibody conjugated magnetic beads (Militenyi Biotec) as described (Moon et al., Immunity 27:203-213 (2007)). Samples were acquired using an FACSCanto (BD) cytometer and analyzed using FlowJo software (Tree Star).

C. albicans [3] = details: mouse, in vivo
C. albicans [4] = assay: Depletion of intestinal C. albicans with fluconazole in antibiotic cocktail treated mice; format: in vivo, mouse; details: C. albicans mono-colonized mice, 10 days after adding fluconazole to antibiotic-supplemented drinking water
C. albicans [5] = details: mouse, in vivo; remark: listed apart in the source
[6] = system: allergic airway inflammation; assay: House dust mite airway reactivity and inflammation; format: in vivo, mouse; details: colonized mice, colonization eradicated with fluconazole
Description: Mice were anesthetized with ketamine/xylazine and hung by their front incisors on an angled stand. 100 μg house dust mite extract (Greer Laboratories) in 40 μL sterile saline was administered intratracheally. 10 days later, mice were challenged with the same amount of house dust mite extract. 48 hours after the second intratracheal challenge, airway resistance in response to inhaled methacholine (100 mg/mL) was measured using FlexiVent (SCIREQ). Saline perfused lungs were minced and digested with collagenase D (1 mg/mL) and DNAse (0.1 mg/mL) in DMEM media supplemented with 10% fetal bovine serum, 1% L-glutamine, 10 mM HEPES, 1% penicillin-streptomycin (Cellgro) for 30 minutes at 37° C. with gentle shaking (200 rpm). The tissue digest was then passed through a 70 μm filter to obtain single cell suspensions.

[7] = antibiotic treated mice, intrarectal administration

curdlan
susceptibility to DSS (mortality) [1]: failed to improve mortality

mannan
survival and accumulation of protective immune cells (influenza A virus; [7]): restored to levels comparable to C. albicans colonized controls
susceptibility to influenza A virus infection (influenza A virus; [7]): mitigated
mannan stimulated cell activation (NF-κB; with antibody blockade against TLR2): not significantly impacted
mannan stimulated cell activation (NF-κB; with antibody blockade against dectin-2): not significantly impacted
mannan stimulated cell activation (NF-κB; with antibody blockade against the mannose receptor): not significantly impacted
mannan induced NF-κB (NF-κB; with neutralization of TLR4): significantly reduced
mannan induced NF-κB (NF-κB; with neutralization of dectin-1): significantly reduced
susceptibility to DSS (mortality) [1]: mitigated

OC(Cn1cncn1)(Cn1cncn1)c1ccc(F)cc1F [fluconazole]
protection against influenza A (influenza A virus; mouse, in vivo): similarly overturned
IL-17RC expression by circulating leukocyte and neutrophils [2]: similarly overturned
RORγt expression by I-Ab:2W1S specific CD4+ T cells [2]: reduced to background levels
expansion of circulating neutrophils [2]: similarly overturned
neutrophil production of reactive oxygen species [2]: similarly overturned
number of CD4+ T cells with commensal C. albicans I-Ab:2W1S specificity [2]: reduced to background levels
IL-17A and IL-17F production by spleen and lymph node CD4+ T cells ([2]; heat-killed C. albicans stimulation): similarly overturned
C. albicans intestinal colonization (C. albicans [3]): efficiently eliminates C. albicans intestinal colonization
recoverable fungi in the feces (C. albicans [4]): rapidly declined to undetectable levels
fungal pathogen burden in the kidney after intravenous infection (C. albicans [5]): significantly increased fungal pathogen burden in the kidney
survival and time-to-death after DSS challenge ([1]; mouse, in vivo): efficiently abolished the improved survival and delayed time-to-death
accumulation of RORγt+ and IL-17 producing CD4+ T cells in the lungs [6]: efficiently overturned
airway responsiveness [6]: efficiently overturned
